Assay results taken from patent EP1946777A1, “Substituted pyrazoline for preventing weight gain” (Laboratorios del Dr. Esteve S.A., priority 2007, dated 2008).
Read-outs that look alike come from different tables or passages of the source.

Columns and labels:
rat CB1 receptors = target: T1, rat CB1 receptors (Rattus norvegicus, UniProt P20272); test: Affinity for rat CB1 receptors: competitive binding of [3H]-CP 55,940 to rat cerebellum membranes; conditions: 1 nM [3H]-CP 55,940, rat cerebellum membranes, 1 hour at 30°C
T1 construct: cerebella from male Wistar rats (250-300g) were carefully dissected on ice and homogenates were prepared; from tissue; host or cells: rat cerebellum (male Wistar) membrane homogenate
T1 sequence (P20272 whole entry): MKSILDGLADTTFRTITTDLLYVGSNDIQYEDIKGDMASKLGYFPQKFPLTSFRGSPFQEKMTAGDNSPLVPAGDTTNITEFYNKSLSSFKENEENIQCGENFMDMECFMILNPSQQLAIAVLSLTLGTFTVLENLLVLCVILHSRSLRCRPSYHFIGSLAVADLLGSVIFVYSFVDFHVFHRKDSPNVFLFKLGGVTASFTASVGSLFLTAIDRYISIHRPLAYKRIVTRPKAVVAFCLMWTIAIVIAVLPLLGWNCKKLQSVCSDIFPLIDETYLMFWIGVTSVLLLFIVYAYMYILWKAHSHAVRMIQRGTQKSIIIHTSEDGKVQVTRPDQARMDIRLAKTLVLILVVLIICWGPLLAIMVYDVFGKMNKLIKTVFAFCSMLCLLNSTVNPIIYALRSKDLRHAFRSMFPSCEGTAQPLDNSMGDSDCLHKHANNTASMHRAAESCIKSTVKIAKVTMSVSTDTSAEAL
Procedure: Binding affinity to CB1 receptor was evaluated according to the method of Govaerts et al (2004) with the following modifications Briefly, cerebella from male Wistar rats (250-300g) were carefully dissected on ice and homogenates were prepared in cold 50 mM Tris-HCl, 5 mM MgCl2, 1 mM EDTA, 0.25 M sucrose, pH 7.4 with a Potter-Heljheim homogenizer and the suspension was centrifuged at 1,000 x g for 5 minutes. The supernatants were collected and centrifuged 50,000 x g for 15 min. The resulting pellets were resuspended in Tris-HCl buffer without sucrose, homogenized and incubated for 15 min at 37°C in an orbital shaker bath and centrifuged again at 50,000 x g for 15 min. Pellets were weighed, resuspended in Tris-HCl buffer without sucrose, homogenized with an Ultraturrax at 13,500 rpm for 3 x 5 seconds and aliquoted in 0.9 ml volumes in Eppendorf tubes. Aliquots were centrifuged at 20,800 x g for 5 minutes, supernatants discarded and pellets were frozen at -80°C until use. Total protein concentration was determined using a Bio-Rad commercial assay base on the Lowry method. […]
Binding data were analyzed by non-linear regression with the software GraphPad Prism Version 3.03.

[1] = Figure 5; cited from earlier work
[2] = Figure 4; cited from earlier work

`O=C(NN1CCCCC1)C1=NN(c2ccc(Cl)cc2Cl)C(c2ccc(Cl)cc2)C1` (stereo not shown) [Subgroup A1, Chemical example 1] showed an IC50 (rat CB1 receptors; read-out: IC50) of 0.026 µM and an IC50 (rat CB1 receptors; read-out: pIC50 (converted)) of 0.0224 µM.

In the case of `Cc1c(C(=O)NN2CCCCC2)nn(-c2ccc(Cl)cc2Cl)c1-c1ccc(Cl)cc1` [rimonabant], the “ability to prevent antipsychotic-induced weight-gain” value [1] is listed as “only partially effective”.

In the case of `CC(C)CC(N(C)C)C1(c2ccc(Cl)cc2)CCC1` (stereo not shown) [sibutramine], the “prevention of antipsychotic-induced weight-gain” value [2] is given as “Partial prevention of antipsychotic-induced weight-gain”.
